Data on eleven molecules can be found in patent US7855294B2, “Cycloalkanopyridine derivative” (Banyu Pharmaceutical Co., Ltd., priority 2004, dated 2010).

Where a name gives a salt, the structure may show the parent alone.

In one series the test system is male ICR (CD-1) mice. Briefly: Antagonism test: hypokinesis (suppression of motion) induced by a nociceptin agonist. The format is in vivo. Conditions: test compound 1 to 10 mg/kg and nociceptin agonist 1 mg/kg hypodermically; motion for 60 minutes; difference between agonist group and solvent control group set to 100%. Here is the method: Using male ICR (CD-1) mice (weighing 20 to 40 g), antagonism to hypokinesis (suppression of motion) induced by a nociceptin agonist was observed. That is, the quantity of motion of each mouse in a 20 cm×30 cm×20 cm cage was measured with an infrared sensor. The test compound (1 to 10 mg/kg) as dissolved in either 0.5% methyl cellulose liquid or a solvent, and a nociceptin agonist (1 mg/kg) were administered to the test mice hypodermically, and the quantity of their motion for 60 minutes was measured. To the control group mice, the solvent only was administered. The evaluation was made by representing the quantity of motion of the mice administered with the test compound by percent, where the difference in the quantity of motion between the nociceptin agonist-administered group and that of the solvent-administered control group during the test time was set to be 100%.

Series [1] deals with T1, nociceptin receptor ORL1 (Homo sapiens, UniProt P41146). Briefly: Nociceptin receptor binding inhibition assay ([125I]Tyr14-Nociceptin, CHO/ORL1 membrane fractions, SPA beads). Details: expressed in transfected cells; membrane fractions. As for the experimental part: A cDNA that codes for a human nociceptin receptor gene was cloned into an expression vector pCR3 (by Invitrogen) to prepare pCR3/ORL1. Next, pCR3/ORL1 was transfected in CHO cells using a transfectam (by Nippongene) to obtain a stable expression strain (CHO/ORL1 cells) having resistance against 1 mg/ml G418. Membrane fractions were prepared from this stable expression strain to carry out a receptor binding assay. 11 μg of the membrane fraction, 50 pM [^125I]Tyr^14-Nociceptin (by Amersham Pharmacia), 1 mg of wheat germ agglutinin SPA beads (PVT based, by Amersham Pharmacia) and each test compound were suspended in an NC buffer (50 mM Hepes, 10 mM sodium chloride, 1 mM magnesium chloride, 2.5 mM calcium chloride, 0.1% BSA, 0.025% bacitracin, pH 7.4) and incubated at 37° C. for 60 minutes, and then the radioactivity of the culture was determined.
T1 sequence (P41146 whole entry): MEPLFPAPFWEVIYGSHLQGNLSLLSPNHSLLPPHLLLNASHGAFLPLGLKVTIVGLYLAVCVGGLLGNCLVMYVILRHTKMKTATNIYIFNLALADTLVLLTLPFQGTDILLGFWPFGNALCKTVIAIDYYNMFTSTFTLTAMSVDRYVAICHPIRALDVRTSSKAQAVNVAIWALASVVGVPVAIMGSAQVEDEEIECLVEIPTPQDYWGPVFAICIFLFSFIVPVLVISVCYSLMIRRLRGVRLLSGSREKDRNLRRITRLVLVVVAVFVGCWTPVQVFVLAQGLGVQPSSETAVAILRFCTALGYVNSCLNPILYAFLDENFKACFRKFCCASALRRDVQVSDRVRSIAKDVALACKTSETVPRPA

The target of series [2] is T1, nociceptin receptor ORL1. Briefly: Antagonism against nociceptin-elicited G protein activation (GTPγ[35S] binding, CHO/ORL1 membrane). The format is biochemical. Also on record: expressed in transfected cells; membrane preparation. Here is the method: CHO cells which stably expressed a nociceptin receptor ORL1 were used to investigate the action of each test compound against nociceptin-elicited G protein activation. A membrane prepared from the CHO/ORL1 cells, 50 nM nociceptin, 200 pM GTPγ[^35S] (by NEN), 1.5 mg of wheat germ agglutinin SPA beads (by Amersham Pharmacia) and each test compound were mixed in a GDP buffer (20 mM Hepes, 100 mM sodium chloride, 10 mM magnesium chloride, 1 mM EDTA, 5 μM GDP, pH 7.4) and incubated at 25° C. for 150 minutes, and then the radioactivity of the culture was determined.

Regarding `O[C@H]1C[C@H](CN2C3CCC2CC2(C3)OCc3cc(F)ncc32)CCc2cccnc21` (stereo partly drawn) (as salt: tartrate) [Example 23, (7R,9S)-7-(6′-aza-5′-fluoro-spiro[8-aza-bicyclo[3.2.1]-octa-3,1′(3′H)-isobenzofuran]-8-ylmethyl)-6,7,8,9-tetrahydro-5H-cyclohepta[b]pyridin-9-ol mono-L-tartrate], the melting point is 133 to 141 °C.
Regarding `Cc1ccccc1[C@H]1CCN(C[C@@H]2CCc3cccnc3[C@@H](O)C2)C[C@@H]1O.O=C(O)C(O)C(O)C(=O)O` (relative stereo) [Example 16, (7R,9S)-7-[(3R*,4R*)-3-hydroxy-4-o-tolyl-piperidin-1-ylmethyl]-6,7,8,9-tetrahydro-5H-cyclohepta[b]pyridin-9-ol mono-L-tartrate], the “Quantity of Motion (%)” value in the series with male ICR (CD-1) mice was above 75%.
Turning to `Cl.O[C@H]1C[C@H](CN2CC[C@H](c3ccccc3Cl)[C@@H](O)C2)CCc2cccnc21` (relative stereo) [Example 31, (7R,9S)-7-[(3R*,4R*)-4-(2-chlorophenyl)-3-hydroxypiperidin-1-ylmethyl]-6,7,8,9-tetrahydro-5H-cyclohepta[b]pyridin-9-ol monohydrochloride], the “Quantity of Motion (%)” value with male ICR (CD-1) mice is listed as above 75%. The IC50 at nociceptin receptor ORL1 [1] (read-out: IC50 value) turned out to be 6.7 nM; at nociceptin receptor ORL1 [2], 2.1 nM.
On to `Cl.O[C@@H]1[C@@H](c2ccc(F)cc2Cl)CC2CC[C@@H]1N2C[C@@H]1Cc2cccnc2[C@@H](O)C1` (relative stereo) [Example 71, (6R,8S)-6-[(1S*,2R*,3R*)-3-(2-chloro-4-fluorophenyl)-2-hydroxy-8-azabicyclo[3.2.1]octan-8-ylmethyl]-5,6,7,8-tetrahydroquinolin-8-ol monohydrochloride], for which the melting point is 238 °C (dec.). Besides, the half-inhibitory concentration (IC50) on nociceptin receptor ORL1 [1] was 1.4 nM. This molecule showed an IC50 at nociceptin receptor ORL1 [2] of 0.68 nM.
For `Cc1cc(F)ccc1[C@H]1CCN(C[C@@H]2CCc3cccnc3[C@@H](O)C2)C[C@@H]1O` (single isomer, unassigned) [Example 17, (7R,9S)-7-[(3R*,4R*)-(4-fluoro-o-tolyl)-3-hydroxypiperidin-1-ylmethyl]-6,7,8,9-tetrahydro-5H-cyclohepta[b]pyridin-9-ol monohydrochloride], the “Quantity of Motion (%)” value in the series on male ICR (CD-1) mice is above 75%.
Turning to `O[C@H]1C[C@H](CN2C3CCC2CC2(C3)OCc3ccccc32)CCc2cccnc21` (stereo partly drawn) [Example 10, (7R,9S)-7-(spiro[8-aza-bicyclo[3.2.1]octa-3,1′(3′H)-isobenzofuran]-8-ylmethyl)-6,7,8,9-tetrahydro-5H-cyclohepta[b]pyridin-9-ol], the half-maximal inhibitory concentration (IC50) on nociceptin receptor ORL1 [1] is 0.37 nM; at nociceptin receptor ORL1 [2], 0.08 nM.
As for `O[C@H]1C[C@H](CN2C3CCC2CC2(C3)OCc3cc(F)ncc32)CCc2cccnc21` (stereo partly drawn) [Example 23, (7R,9S)-7-(6′-aza-5′-fluoro-spiro[8-aza-bicyclo[3.2.1]-octa-3,1′(3′H)-isobenzofuran]-8-ylmethyl)-6,7,8,9-tetrahydro-5H-cyclohepta[b]pyridin-9-ol mono-L-tartrate], the results for the IC50 on nociceptin receptor ORL1 [1] and on nociceptin receptor ORL1 [2] were 0.53 nM and 1.2 nM, respectively.
For the molecule `CC1(C)OC2(CCN(C[C@@H]3Cc4cccnc4[C@@H](O)C3)CC2)c2ccccc21.O=C(O)C(O)C(O)C(=O)O` [Example 25, (6R,8S)-6-(3,3-dimethyl-spiro[isobenzofuran-1(3H),4′-piperidin]-1′-ylmethyl)-5,6,7,8-tetrahydro-quinolin-8-ol mono-L-tartrate], in the series with male ICR (CD-1) mice, the “Quantity of Motion (%)” value is reported as above 75%. Further, the concentration for half-maximal inhibition (IC50) at nociceptin receptor ORL1 [1] came out at 2.5 nM; at nociceptin receptor ORL1 [2], 4.2 nM.
In the case of `O=C(O)C(O)C(O)C(=O)O.O[C@H]1C[C@H](CN2CCC(F)(c3ccccc3Cl)CC2)Cc2cccnc21` [Example 29, (6R,8S)-6-[4-(2-chlorophenyl)-4-fluoropiperidin-1-ylmethyl]-5,6,7,8-tetrahydroquinolin-8-ol mono-L-tartrate], the “Quantity of Motion (%)” value with male ICR (CD-1) mice is given as above 75%. For the same molecule, the values for the IC50 at nociceptin receptor ORL1 [1] (read-out: IC50 value) and at nociceptin receptor ORL1 [2] were 4.1 nM and 4.7 nM, respectively.
As to `Cl.O[C@H]1C[C@H](CN2CC[C@H](c3ccc(F)cc3Cl)[C@@H](O)C2)Cc2cccnc21` [Example 33, (6R,8S)-6-[(3R,4R)-4-(2-chloro-4-fluorophenyl)-3-hydroxypiperidin-1-ylmethyl]-5,6,7,8-tetrahydroquinolin-8-ol monohydrochloride], the “Quantity of Motion (%)” value with male ICR (CD-1) mice was above 75%.
As for `CC1(C)OC2(CC3CCC(C2)N3C[C@@H]2Cc3cccnc3[C@@H](O)C2)c2cnc(F)cc21` (stereo partly drawn) [Example 70, (6R,8S)-6-[(5′-fluoro-3′,3′-dimethyl-3′H-6′-azaspiro[8-azabicyclo[3.2.1]octane-3,1′-isobenzofuran]-8-yl)methyl]-5,6,7,8-tetrahydroquinolin-8-ol mono-L-tartrate], the IC50 on nociceptin receptor ORL1 [1] was determined as 0.39 nM; at nociceptin receptor ORL1 [2], 0.32 nM.
